In general, Ki refers to the dissociation constant of the complex between target and ligand, obtained from inhibition or displacement. Broadly, the EC50 is the concentration that produces a half-maximal response. High values mean lower potency in that assay, low ones higher potency in that assay.

“Also recorded” adds a separate entry of the source. Where a name gives a salt, the structure may show the parent alone. Read-outs that look alike come from different tables or passages of the source. A value given as a limit tells only on which side of the number the result lay.

One assay deals with D-1 receptor. As to the kind of experiment: Adenylate cyclase assay (agonist activity, cAMP). The assay is classed as biochemical, goldfish retina or rat striatum.
The subject of assay [1] is striatal dopamine receptors. Nature of the assay: animal or person. The following applies: Rattus norvegicus, sc, read-out: EC50, rotation behavior. The class given is in vivo.
Another assay addresses T1, dopamine D-2 receptor (Rattus norvegicus, UniProt P61169).
T1 construct: Homogenized rat caudate was the source of the D-2 receptors; from tissue; host or cells: rat caudate homogenate
Nature of the assay: D-2 receptor competitive binding, [3H]-spiroperidol, homogenized rat caudate. The following applies: rat caudate, [3H]-spiroperidol; read-out: D-2 Ki.

Another assay addresses dopamine D-1 receptor (Rattus norvegicus, UniProt P18901). As to the kind of experiment: biochemical.
[2] abbreviates: goldfish retina or rat striatum homogenate.

Chain of dopamine D-1 receptor (P18901 whole entry): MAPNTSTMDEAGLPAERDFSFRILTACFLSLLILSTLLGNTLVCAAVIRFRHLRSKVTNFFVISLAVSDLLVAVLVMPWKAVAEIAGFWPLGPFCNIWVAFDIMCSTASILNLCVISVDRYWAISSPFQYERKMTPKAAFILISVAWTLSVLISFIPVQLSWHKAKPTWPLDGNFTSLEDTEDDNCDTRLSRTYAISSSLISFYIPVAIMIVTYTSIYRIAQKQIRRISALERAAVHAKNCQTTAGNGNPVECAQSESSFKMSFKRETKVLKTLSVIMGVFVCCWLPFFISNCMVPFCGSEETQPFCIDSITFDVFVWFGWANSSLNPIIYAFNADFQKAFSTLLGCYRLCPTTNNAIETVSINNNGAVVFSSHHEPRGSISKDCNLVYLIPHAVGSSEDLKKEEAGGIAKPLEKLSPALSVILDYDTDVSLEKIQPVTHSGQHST
T1 sequence (P61169 whole entry): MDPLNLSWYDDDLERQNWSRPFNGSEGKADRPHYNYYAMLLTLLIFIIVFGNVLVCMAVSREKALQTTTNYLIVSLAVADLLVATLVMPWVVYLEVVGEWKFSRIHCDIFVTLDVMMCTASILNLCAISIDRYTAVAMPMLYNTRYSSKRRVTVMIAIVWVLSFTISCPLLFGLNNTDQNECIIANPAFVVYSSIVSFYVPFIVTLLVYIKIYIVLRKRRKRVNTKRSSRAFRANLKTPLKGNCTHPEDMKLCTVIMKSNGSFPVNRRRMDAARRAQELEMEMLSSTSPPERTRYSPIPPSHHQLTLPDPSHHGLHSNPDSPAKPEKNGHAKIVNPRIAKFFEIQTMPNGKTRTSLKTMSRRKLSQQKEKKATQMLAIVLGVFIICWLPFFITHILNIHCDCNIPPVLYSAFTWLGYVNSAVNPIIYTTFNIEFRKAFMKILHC

Take “2-propyl-4,5,5a,6,7,11b-hexahydro-1-thia-5-aza-cyc! opent-2-ena[c]phenanthrene-10-ol hydrobromide [Example 44]”: the “agonist/antagonist properties at dopamine receptor” value with D-1 receptor (hydrobromide) is recorded as “no agonist properties; also recorded: dopamine antagonist”.
On to `CCc1cc2c(s1)CN[C@H]1CCc3cc(O)c(O)cc3[C@H]21` (relative stereo) [Example 3, trans-2-ethyl-4,5,5a,6,7,11b-hexahydro-3-thia-5-aza-cyclopent-1-ena[c]phenanthrene-9,10-diol hydrobromide], for which the ED50 in assay [1] is 0.077 µmol/kg.
Same read-out and setting: next, `CCCc1cc2c(s1)CN[C@H]1CCc3cc(O)c(O)cc3[C@H]21` (relative stereo) [Example 5, trans-2-propyl-4,5,5a,6,7,11b-hexahydro-3-thia-5-aza-cyclopent-1-ena[c]phenanthrene-9,10-diol hydrobromide]: 0.15 µmol/kg; `CC(C)(C)c1cc2c(s1)CN[C@H]1CCc3cc(O)c(O)cc3[C@H]21` (relative stereo) [Example 6, trans-2-(1,1-dimethylethyl)-4,5,5a,6,7,11b-hexahydro-3-thia-5-aza-cyclopent-1-ena[c]phenanthrene-9,10-diol hydrobromide]: 0.12 µmol/kg.
With `CC(C)(C)Cc1cc2c(s1)CN[C@H]1CCc3cc(O)c(O)cc3[C@H]21` (relative stereo) [Example 10, trans-2-(2,2-Dimethylpropyl)-4,5,5a,6,7,11b-hexahydro-3-thia-5-aza-cyclopent-1-ena[c]-phenanthrene-9,10-diol], the figures for the inhibitory constant (Ki) at dopamine D-2 receptor and on dopamine D-1 receptor were 4600 nM and 560 nM, respectively. Besides, the “Intrinsic Activity (%)” value with D-1 receptor is listed as 50%. Moreover, at D-1 receptor (setting [2]), the EC50 worked out at 216 nM.
`Oc1cc2c(cc1O)[C@@H]1c3sc(-c4ccccc4)cc3CN[C@H]1CC2` (relative stereo) [Example 19, trans-2-phenyl-4,5,5a,6,7,11b-hexahydro-1-thia-5-aza-cyclopent-2-ena[c]phenanthrene-9,10-diol hydrobromide]: the inhibitory constant (Ki) on dopamine D-2 receptor stood at 750 nM; at dopamine D-1 receptor, 360 nM. This compound returned an EC50 on D-1 receptor of 25 nM. For the same compound, the “Intrinsic Activity (%)” value in the assay with D-1 receptor amounted to 79%.
On to `Cc1cc2c(s1)CN[C@H]1CCc3cc(O)c(O)cc3[C@H]21` (relative stereo) [Example 22, trans-2-methyl-4,5,5a,6,7,11b-hexahydro-3-thia-5-aza-cyclopent-1-ena[c]phenanthrene-9,10-diol hydrobromide], for which, in assay [1], the ED50 turned out to be 0.2 µmol/kg.
As to `CCCc1nc2c(s1)[C@H]1c3cc(O)c(O)cc3CC[C@@H]1NC2` (relative stereo) [Example 27, trans-2-propyl-4,5,5a,6,7,11b-hexahydro-1-thia-3,5-diaza-cyclopent-2-ena[c]phenanthrene-9,10-diol dihydrobromide], the Ki at dopamine D-2 receptor amounted to 210 nM; on dopamine D-1 receptor it was 11 nM. Moreover, the ED50 in assay [1] was above 1 µmol/kg. The “Intrinsic Activity (%)” value in the assay with D-1 receptor stood at 93%. The same compound had a 50% effective concentration (EC50) on D-1 receptor (setting [2]) of 120 nM.
The like results for `Oc1cc2c(cc1O)[C@H]1c3sc(C(F)(F)F)nc3CN[C@@H]1CC2` (relative stereo) [Example 28, trans-2-Trifluoromethyl-4,5,5a,6,7, 11b-hexahydro-1-thia-3,5-diaza-cyclopent-2-ena[c]phenanthrene-9,10-diol] were, in that order, above 5000 nM, 52 nM, 0.4 µmol/kg, 77% and 202 nM.
For the compound `CCCc1nc2c(o1)[C@@H]1c3cc(O)c(O)cc3CC[C@H]1NC2` (relative stereo) [Example 29, trans-2-Propyl-4,5,5a,6,7,11b-hexahydro-1-oxa-3,5-diaza-cyclopent-2-ena[c]phenanthrene-9,10-diol dihydrobromide], the ED50 in assay [1] worked out at 0.41 µmol/kg. For the same compound, on D-1 receptor, the 50% effective concentration (EC50) is 28 nM and the “Intrinsic Activity (%)” value worked out at 81%.
Consider `CC(C)CCc1cc2c(s1)[C@@H]1c3cc(O)c(O)cc3CC[C@H]1NC2` (relative stereo) [Example 30, trans-2-(3-Methylbutyl)-4,5,5a,6,7,11b-hexahydro-1-thia-5-aza-cyclopent-2-ena[c]phenanthrene-9,10-diol hydrobromide], for which the inhibition constant (Ki) on dopamine D-2 receptor turned out to be 560 nM; at dopamine D-1 receptor, 62 nM. Further, the ED50 in assay [1] is above 1 µmol/kg. For the same compound, the “Intrinsic Activity (%)” value in the assay with D-1 receptor is reported as 70%. Moreover, on D-1 receptor (setting [2]), a half-maximal effect (EC50) was put at 105 nM.
Regarding `CC(C)c1cc2c(s1)[C@@H]1c3cc(O)c(O)cc3CC[C@H]1NC2` (relative stereo) [Example 34, trans-2-Isopropyl-4,5,5a,6,7,11b-hexahydro-1-thia-5-aza-cyclopent-2-ena[c]phenanthrene-9,10-diol trifluoroacetate salt], on dopamine D-2 receptor, the Ki is 420 nM. The compound also had a Ki at dopamine D-1 receptor of 4 nM. Moreover, in assay [1], the ED50 was determined as 0.04 µmol/kg. Moreover, at D-1 receptor, the 50% effective concentration (EC50) is 16 nM and the “Intrinsic Activity (%)” value stood at 80%.
Regarding `Oc1cc2c(cc1O)[C@H]1c3cc(-c4cccs4)sc3CN[C@@H]1CC2` (relative stereo) [Example 37, trans-2-(2-Thiophenyl)-4,5,5a,6,7,11b-hexahydro-3-thia-5-aza-cyclopent-1-ena[c]phenanthrene-9,10-diol hydrobromide], the inhibition constant (Ki) was determined as 3190 nM on dopamine D-2 receptor and 710 nM on dopamine D-1 receptor. The “Intrinsic Activity (%)” value with D-1 receptor was determined as 65%. This compound also returned an EC50 on D-1 receptor (setting [2]) of 332 nM.
Consider `CCCCCCc1cc2c(s1)CN[C@@H]1CCc3cc(O)c(O)cc3[C@@H]21` (relative stereo) [Example 38, trans-2-Hexyl-4,5,5a,6,7,11b-hexahydro-3-thia-5-aza-cyclopent-1-ena[c]phenanthrene-9,10-diol TFA salt], for which the Ki is 2580 nM at dopamine D-2 receptor and 1430 nM on dopamine D-1 receptor. Further, the “Intrinsic Activity (%)” value in the assay with D-1 receptor was found to be 58%. The compound further yielded a concentration for a half-maximal effect (EC50) on D-1 receptor (setting [2]) of 285 nM.
As for `Oc1cc2c(cc1O)[C@H]1c3cc(CC4CCCC4)sc3CN[C@@H]1CC2` (relative stereo) [Example 39, trans-2-(Cyclopentylmethyl)-4,5,5a,6,7,11b-hexahydro-3-thia-5-aza-cyclopent-1-ena[c]phenanthrene-9,10-diol hydrobromide], the inhibition constant Ki at dopamine D-2 receptor amounted to 1620 nM; at dopamine D-1 receptor, 450 nM. The “Intrinsic Activity (%)” value in the assay on D-1 receptor was 93%. Also, the half-maximal effective concentration (EC50) at D-1 receptor (setting [2]) came to 110 nM.
In the case of `CCCc1cc2c(o1)CN[C@@H]1CCc3cc(O)c(O)cc3[C@@H]21` (relative stereo) [Example 41, trans-2-Propyl-4,5,5a,6,7,11b-hexahydro-3-oxa-5-aza-cyclopent-1-ena[c]phenanthrene-9,10-diol], the inhibition constant Ki on dopamine D-2 receptor was 600 nM. At dopamine D-1 receptor, affinity was put at a Ki of 21 nM. Also, in assay [1], the ED50 was 0.07 µmol/kg. For the same compound, at D-1 receptor, the response was half-maximal at 46 nM (EC50) and the “Intrinsic Activity (%)” value is on record as 87%.
Consider `Oc1cc2c(cc1O)[C@H]1c3cc(-c4ccccc4)oc3CN[C@@H]1CC2` (relative stereo) [Example 42, trans-2-Phenyl-4,5,5a,6,7,11b-hexahydro-3-oxa-5-aza-cyclopent-1-ena[c]phenanthrene-9,10-diol hydrochloride], for which the inhibition constant Ki at dopamine D-2 receptor amounted to 640 nM; at dopamine D-1 receptor, 453 nM. Moreover, the EC50 at D-1 receptor amounted to 78 nM. The “Intrinsic Activity (%)” value in the assay with D-1 receptor turned out to be 59%.
As for `CCCc1csc2c1CN[C@@H]1CCc3cc(O)c(O)cc3[C@@H]21` (relative stereo) [Example 52, trans-3-propyl-4,5,5a,6,7,11b-hexahydro-1-thia-5-aza-cyclopent-2-ena[c]phenanthrene-9,10-diol hydrochloride], in assay [1], the ED50 came out at 0.32 µmol/kg.
`CCCc1nc2c(o1)CN[C@@H]1CCc3cc(O)c(O)cc3[C@@H]21` (relative stereo) [Example 53, trans-2-propyl-4,5,5a,6,7,11b-hexahydro-1,5-diaza-3-oxa-cyclopent-1-ena[c]phenanthrene-9,10-diol dihydrobromide]: the Ki came out at 230 nM on dopamine D-2 receptor and 154 nM on dopamine D-1 receptor. Also, the “Intrinsic Activity (%)” value in the assay on D-1 receptor was 83%. Further, the half-maximal effective concentration (EC50) on D-1 receptor (setting [2]) was 1000 nM.
With `CCc1cc2c(s1)CN[C@H]1CCc3cc(O)c(O)cc3[C@H]21` (single isomer, unassigned) [Example 4, (-)-trans-2-ethyl-4,5,5a,6,7,11b-hexahydro-3-thia-5-aza-cyclopent-1-ena[c]phenanthrene-9,10-diol hydrobromide], the ED50 in assay [1] stood at 0.04 µmol/kg.
As for `CCCc1cc2c(s1)CN[C@H]1CCc3cc(O)c(O)cc3[C@H]21` (single isomer, unassigned) [Example 20, (-)-trans-2-propyl-4,5,5a,6,7,11b-hexahydro-3-thia-5-aza-cyclopent-1-ena[c]phenanthrene-9,10-diol hydrobromide], the ED50 in assay [1] is 0.11 µmol/kg.
For the compound `Cc1cc2c(s1)CN[C@H]1CCc3cc(O)c(O)cc3[C@H]21` (single isomer, unassigned) [Example 23, (-)-trans-2-Methyl-4,5,5a,6,7,11b-hexahydro-3-thia-5-aza-cyclopent-1-ena[c]-phenanthrene-9,10-diol], the ED50 in assay [1] was determined as 0.05 µmol/kg.
With `CC(C)(C)c1cc2c(s1)CN[C@H]1CCc3cc(O)c(O)cc3[C@H]21` (single isomer, unassigned) [Example 24, (-)-trans-2-(1,1-Dimethylethyl)-4,5,5a,6,7,11b-hexahydro-3-thia-5-aza-cyclopent-1-ena[c]-phenanthrene-9,10-diol], the ED50 in assay [1] is 0.04 µmol/kg.
For `CCCc1cc2c(s1)CNC1CCc3cc(OC(C)=O)c(OC(C)=O)cc3C21` (single isomer, unassigned; (-)) [Example 48, (-)-trans-9,10-Diacetyloxy-2-propyl-4,5,5a,6,7,11b-hexahydro-3-thia-5-aza-cyclopent-1-ena[c]phenanthrene hydrochloride], the ED50 in assay [1] turned out to be 0.04 µmol/kg.
For `Cc1ccc(-c2cc3c(s2)CNC2CCc4cc(O)c(O)cc4C32)cc1` (stereo not drawn) [Example 46, 2-(4-Methylphenyl)-4,5,5a,6,7,11b-hexahydro-3-thia-5-aza-cyclopent-1-ena[c]phenanthrene-9,10-diol hydrobromide], the inhibition constant Ki on dopamine D-2 receptor and at dopamine D-1 receptor was above 5000 nM in each case.

These data come from patent US5597832A (Abbott Laboratories, priority 1994, dated 1997).
